Reference: patent US20230255961A1, “Rotomeric Isomers of 4-Alkyl-5-Heteroaryl-3H-1,2-Dithiole-3-Thiones” (ST IP Holding AG, priority 2020, published 2023)
Where two headings read alike, the source gives them in different places.

Key:
[1] = system: GCLC; experiment: Human oxidative stress RT2 Profiler PCR array in HGEPp cells: GCLC; type: cell-based; conditions: HGEPp cells pretreated 24 h at 100 μg/ml; ΔΔCt
Experimental: (§1) RT-PCR was performed on an iCycler.

[2] = system: PRDX2; experiment: Human oxidative stress RT2 Profiler PCR array in HGEPp cells: PRDX2; conditions: HGEPp cells pretreated 24 h at 100 μg/ml; ΔΔCt
Experimental: (§3) Pooled primary HGEPp cells were propagated in CnT-Prime epithelial culture medium provided by CellnTec on 100 mm petri dishes coated with 30 mg/ml Type I rat tail collagen (BD Biosciences) diluted in Duibecco's phosphate-buffered saline (DPBS). HGEPp cells were grown in 12×60 mm Nunc™ Cell Culture dishes at a 2.5×10^4 cells/cm2 density concentration.
(§4) All dosing solutions contained 0.3% of DMSO which is well below the maximum tolerated DMSO percent of 0.8% for HGEPp cells.
(§5) The RN-easy UCP Micro Kit was used to purify mRNA from the HGEPp cells.
(§6) The assay was reliably used to analyze expression levels of 84 genes related to oxidative stress in HGEPp cells pre-treated with ST-617-APT, ST-617-DPT and the rotomeric complexes at 100 μg/ml for 24 h. The cDNA from above was mixed with the RT2 SYBR Green fluor Mastermix and aliquoted into the wells of the RT2 Profiler PCR Array. RT-PCR was performed on an iCycler. Gene expression was compared using et values and the results were calculated using ΔΔ Ct method with normalization to the average expression levels of the five common genes (ACTB, B2M, GAPDH, HPRT, and RPL13A).

[3] = system: UCP2; experiment: Human oxidative stress RT2 Profiler PCR array in HGEPp cells: UCP2; type: cell-based; conditions: HGEPp cells pretreated 24 h at 100 μg/ml; ΔΔCt
Experimental: as §1

[4] = system: NQO1; experiment: Human oxidative stress RT2 Profiler PCR array in HGEPp cells: NQO1; type: cell-based; conditions: HGEPp cells pretreated 24 h at 100 μg/ml; ΔΔCt
Experimental: as §1

[5] = system: GSTP1; experiment: Human oxidative stress RT2 Profiler PCR array in HGEPp cells: GSTP1; type: cell-based; conditions: HGEPp cells pretreated 24 h at 100 μg/ml; ΔΔCt
Experimental: as §1

[6] = system: MPO; experiment: Human oxidative stress RT2 Profiler PCR array in HGEPp cells: MPO; conditions: HGEPp cells pretreated 24 h at 100 μg/ml; ΔΔCt
Experimental: as §3, §4, §5, §6

[7] = system: SOD1; experiment: Human oxidative stress RT2 Profiler PCR array in HGEPp cells: SOD1; type: cell-based; conditions: HGEPp cells pretreated 24 h at 100 μg/ml; ΔΔCt
Experimental: as §1

[8] = system: ALOX12; experiment: Human oxidative stress RT2 Profiler PCR array in HGEPp cells: ALOX12; type: cell-based; conditions: HGEPp cells pretreated 24 h at 100 μg/ml; ΔΔCt
Experimental: as §1

[9] = system: GPX1; experiment: Human oxidative stress RT2 Profiler PCR array in HGEPp cells: GPX1; type: cell-based; conditions: HGEPp cells pretreated 24 h at 100 μg/ml; ΔΔCt
Experimental: as §1

[10] = system: GPX4; experiment: Human oxidative stress RT2 Profiler PCR array in HGEPp cells: GPX4; conditions: HGEPp cells pretreated 24 h at 100 μg/ml; ΔΔCt
Experimental: as §3, §4, §5, §6

[11] = system: PTGS1; experiment: Human oxidative stress RT2 Profiler PCR array in HGEPp cells: PTGS1; type: cell-based; conditions: HGEPp cells pretreated 24 h at 100 μg/ml; ΔΔCt
Experimental: as §1

[12] = system: HGEPp cells; experiment: ROS production in H2O2-induced oxidatively stressed HGEPp cells; type: cell-based, human; conditions: HGEPp cells pretreated 24 hrs at 100 μg/mL prior to 0.3 mM H2O2 for 4 h; positive control 139%
Experimental: That same assay was carried out on the rotomer compositions prepared in Examples 1-11 above to determine their effect on protecting primary human gingival epithelial cells (HGEPp) cells from oxidative damage induced by hydrogen peroxide (H2O2).

[13] = system: GCLM; experiment: Human oxidative stress RT2 Profiler PCR array in HGEPp cells: GCLM; type: cell-based; conditions: HGEPp cells pretreated 24 h at 100 μg/ml; ΔΔCt
Experimental: as §1

[14] = system: GTF2i; experiment: Human oxidative stress RT2 Profiler PCR array in HGEPp cells: GTF2i; type: cell-based; conditions: HGEPp cells pretreated 24 h at 100 μg/ml; ΔΔCt
Experimental: as §1

[15] = system: oxidative stress-related genes in HGEPp cells; experiment: Human oxidative stress RT2 Profiler PCR array in HGEPp cells: statements over several genes; conditions: for SOD1, NQ01, GCLC, GSTP1 and GCLM; 100 μg/ml, 24 h
Experimental: as §3, §4, §5, §6

[16] = system: rat cortical neurons; experiment: Caspase 3/7 activation assay, OGD-induced neurotoxicity in rat cortical neurons; type: cell-based; conditions: for OGD induced caspase 3/7 activation / neuroprotection: 100 μg/ml, 1 h incubation eighteen hours prior to OGD, FIG. 7
Experimental: The effect of the rotomer complexes of Examples 1, 2, 3 and 9 on neurotoxicity induced by oxygen glucose deprivation (OGD) was tested in a caspase 3/7 activation assay. The assay was applied to freshly isolated rat cortical neurons cultured in 96-well-plates and exposed to the compounds at 100 μg/ml.
In vitro ischemic injury was induced in rat primary neuronal culture by oxygen-glucose deprivation for 2 hours. Neurons were incubated with the compounds for 1 hour eighteen hours prior to the OGD induction. Dizocilpine (MK801) 10 μM was used as positive neuroprotection control. After treatments, incubated with three optically compatible fluorescent dyes, and subsequently analyzed with BD Pathway 855 (Becton Dickinson). Cell parameters associated with caspase 3/7 activation—indicative of pre-lethal cytotoxic effects—were measured by high content screening at single cell level.
Primary cultures of cortical neurons were isolated from cerebral cortices of Sprague-Dawley rat fetuses at embryonic day 18. Brains were removed and after removing the meninges, the tissues were dissected under a binocular microscope. Neurons were enzymatically dispersed by trypsin 0.2% and DNAse […] digestion for 10 min at 37° C. plated in poly-L-lysine wells and incubated with B27 supplemented neurobasal medium.
Cortical neurons of 18 days old embryonic rats were plated in poly-1-lysine coated 96-well plates (30,000 cells per well). Cells were maintained in neurobasal medium supplemented with B-27 component: for 5 days at 37° C. in a humidified 5% CO2 atmosphere. At day 5, cells were subjected to oxygen glucose deprivation (OGD) for 2 hours at 37° C. The cultures were placed in an […] chamber (Billops-Rothenberg) and incubated in neurobasal medium lacking glucose and B27 factor and aerated with an anaerobic gas mixture (94.7% N2. 5% CO2, 0.3% O2) to remove residual oxygen. Control cultures were kept in the original neurobasal medium but were submitted to the anaerobic conditions. At the end of the OGD conditions, the cells were removed from the anaerobic chamber, the OGD medium was replaced with neurobasal medium containing glucose, and the cells were incubated for an additional 24 h. The test compounds were added to the neurons eighteen hours prior to the OGD induction and maintained for 1 h. Replicate cultures were treated as described above with dizocilpine (MK801) as positive control of neuroprotection. The neuroprotective potential of the four rotomer complexes was determined by a caspase 3/7 activation assay.
(§2) Caspase 3/7 activation was determined using The CellEvent® Caspase-3/7 Green Detection Reagent which is intrinsically a non-fluorescent peptide that inhibits the ability of the dye to bind to DNA. However, after caspase-3/7 activation in apoptotic cells, the peptide is cleaved allowing the dye to bind to DNA producing a bright, fluorogenic response. Cell were stained with 5 μM reagent, washed 3 times and measured at 488 nm/530 nm Ex/Em. This dye permits the direct quantification of apoptotic cells.

[17] = system: mouse neonatal primary cardiomyocyte; conditions: 100 μg/ml, 4 hours prior to OGD, during 18 h OGD and 24 h recovery; FIG. 9
Experimental: as §2

[18] = system: HGEPp cells; conditions: 100 μg/mL pretreatment; taken from PCT/IB2017/001312; cited from earlier work

Compound	GCLC up regulation relative fold change [1] [fold]	PRDX2 down regulation relative fold change [2] [fold]	UCP2 down regulation relative fold change [3] [fold]	NQO1 up regulation relative fold change [4] [fold]	GSTP1 up regulation relative fold change [5] [fold]	MPO up regulation relative fold change [6] [fold]	SOD1 up regulation relative fold change [7] [fold]	ALOX12 up regulation relative fold change [8] [fold]	GPX1 up regulation relative fold change [9] [fold]	GPX4 up regulation relative fold change [10] [fold]	PTGS1 down regulation relative fold change [11] [fold]	ROS level relative to Normal (100%, optical density baseline) [12] [%]	GCLM up regulation relative fold change [13] [fold]	GTF2i down regulation relative fold change [14] [fold]	up-regulation compared to ST-617-DPI and ST-617-DPI [15]	OGD induced caspase 3/7 activation [16]	neuroprotection [16]	cardioprotection [17]	prevention of OGD-induced apoptosis based on caspase activation ([16]; 10 μM, OGD 2 hours, measured 24 h after exposure) [%]	ROS level relative to Normal (100%, optical density baseline) [18] [%]
CCCC[n+]1ccncc1-c1ssc(=S)c1C.[Cl-] [Example 4, n-butyl chloride complex of oltipraz]	3.35	0.32	0.25	3.34	2.88	3.20	4.15	5.82	4.80	2.96	0.27	128	2.38	0.35						
Cc1c(-c2cnccn2)ssc1=S.O=S(=O)(O)CCO [Example 10, isethionic acid complex of oltipraz]												113			significantly higher up-regulation					
thiobenzoic acid complex of oltipraz [Example 11]												116								
Cc1c(-c2cncc[n+]2C(=O)c2ccccc2)ssc1=S.[Cl-] [Example 6, benzoyl chloride complex of oltipraz]	3.31	0.31	0.28	3.17	2.74	3.05	3.92	5.93	4.43	2.91	0.28	131	2.25	0.36						
COP(=O)([O-])OC.Cc1c(-c2c[n+](C)ccn2)ssc1=S [Example 9, dimethyl phosphate complex of N-methyl oltipraz]	4.60	0.27	0.15	4.24	3.16	3.41	5.22	6.43	4.89	2.93	0.21	112	3.15	0.28	significantly higher up-regulation	significantly reduced	high degree of neuroprotection	significant degree of cardioprotection		
CC(=O)[n+]1ccncc1-c1ssc(=S)c1C.[Cl-] [Example 3, acetyl chloride complex of oltipraz]	3.27	0.33	0.26	3.36	2.87	3.10	4.24	6.33	4.76	2.83	0.29	129	2.38	0.32		significantly reduced	high degree of neuroprotection	significant degree of cardioprotection		
Cc1c(-c2cnccn2)ssc1=S.Cl [Example 1, hydrochloride complex of oltipraz]												128				significantly reduced	high degree of neuroprotection	significant degree of cardioprotection		
C[C@]12N[C@H](Cc3ccccc31)c1ccccc12 [MK801, Dizocilpine, reference compound]																			28	
Cc1c(-c2cncc[n+]2C)ssc1=S.[I-] [Example 5, methyl iodide complex of oltipraz]	3.38	0.32	0.29	3.15	2.90	3.18	3.89	6.04	4.98	2.85	0.28	134	2.27	0.33						
Cc1c(-c2cncc[n+]2OC2=CC(=O)OC2=O)ssc1=S [Example 2, hydroxymaleate anhydride complex of oltipraz]												116				significantly reduced	high degree of neuroprotection	significant degree of cardioprotection		
Cc1c(-c2cnccn2)ssc1=S [ST-617-API, 4-methyl-5-(pyrazin-2-yl)-3H-1,2-dithiole-3-thione, reference compound]											6.22									124
